Experiments:
melanin in A375 cells = experiment: Melanin assay in A375 cells; assay type: cell-based, human; conditions: after normalization with cell number, dose-dependent manner, FIG. 5B
Description: Cells (1×10^5 cells) were seeded in 12 well plates and treated with drugs for 24 or 48 hr. Plates were washed with PBS and added 0.5 ml of 1N NaOH, and heating at 100° C. for 1 h. Plates were then centrifuged at 12,000 rpm for 30 min at 25° C. Supernatants (100 μl/well) were added into 96 well plates, and the secretion of melanin was determined by measuring the absorbance at 405 nm using microplate reader (Thermo Labsystems).

[1] = tested on: burn wound on back skin of C57BL/6 mice; experiment: Animal skin injury (burn wound) model, wound healing; assay type: in vivo; conditions: for Wound Area: cream spread on burned site once/day, extract and Andrographolide 0.1 mg/ml, Silver sulfadiazine 1%, mean ± SD
Description: These mice were used between 8 to 10 weeks of age and age-matched for each experiment.
A cream matrix containing 1 g polyethylene glycol/poly propylene glycol/poly ethylene glycol (PEG-PPG-PEG; MW=5800; Sigma), 2 ml polyethylene glycol-400 (PEG-400; FCW®, Taiwan), and 3 ml polyethylene glycol-1500 (PEG-1500; FCW®, Taiwan) was formed. The solution of A. paniculata extract and Andrographolide was added into cream matrix and completely mixed (for both of them, the final concentration is 0.1 mg/ml).
Mice were anesthetized by pentobarbital (50 mg/kg) and removed the hair of back. A stainless steel cylinder tool (1 cm in diameter, 0.785 cm^2 cm in area) was heated for 20 sec and attached on back skin of mice for 2 sec. […] The wound area was measured on days 1, 3, 5, 7, 9, 11, 13, 15, 17, 19, and 21 after drug treatment.

HaCaT cells = experiment: MTT cell viability assay, HaCaT cells; assay type: cell-based, human; conditions: FIG. 1B
Description: (§1) HaCaT cell is an immortal human keratinocyte line (CLS order no. 300493) and A375 cell is a human melanoma cell line (ATCC, CRL-1619) that isolated from malignant melanoma. Both cells were cultured in Dulbecco's Modified Eagle Medium (DMEM; Gibco, Carlsbad, Calif., USA) with 10% fetal bovine serum (FBS; Gibco), and 1% Penicillin/Streptomycin (Biowest) in culture incubator at 37° C., 5% CO2. CCD-966SK is a human skin fibroblast (ATCC, CRL-1881) cell line that taken from the breast of patient with invasive ductal carcinoma and cultured in Minimum Essential Medium (MEM; Gibco) with 10% FBS, 1% sodium pyruvate (Biowest), and 1% Penicillin/Streptomycin (Biowest) in culture incubator at 37° C., 5% CO2.
(§2) The 3-(4,5-dimethylthiazol-2-yl)-2,5-diphenyltetrazolium bromide (MTT, Invitrogen) is a colorimetric based assay that is performed to analyze the proliferation of cells. Cells (1×10^4 cells) were seeded in 96 well plates for overnight. […] The media was removed, and formazan was solubilized by adding 100 of DMSO (Sigma-Aldrich) and absorbance was measured at 570 nm using a microplate reader (Thermo Labsystems, Opsys MR, USA). […]

CCD-966SK cells = experiment: MTT cell viability assay, CCD-966SK cells; assay type: cell-based, human; conditions: 50 μg/ml; 24 and 48 h; FIG. 2B
Description: as §1, §2

A375 cell = experiment: MTT cell viability assay, A375 cells; assay type: cell-based, human; conditions: dose-dependent manner; FIG. 5A
Description: as §1, §2

C=C1CC[C@@H]2[C@](C)(CO)[C@H](O)CC[C@@]2(C)[C@@H]1C/C=C1/C(=O)OC[C@H]1O [Andrographolide]
expression level of melanin (melanin in A375 cells): significantly inhibited
wound healing rate compared with silver sulfadiazine-treated mice ([1]; 0.1 mg/ml cream once/day vs Silver sulfadiazine 1%, FIG. 3): two days earlier
Wound Area ([1]; DAY 1): 133.57 ± 28.46 mm^2
Wound Area ([1]; DAY 3): 111.94 ± 24.09 mm^2
Wound Area ([1]; DAY 5): 85.15 ± 13.35 mm^2
Wound Area ([1]; DAY 7): 48.43 ± 5.91 mm^2
Wound Area ([1]; DAY 9): 28.22 ± 9.40 mm^2
Wound Area ([1]; DAY 11): 16.46 ± 5.43 mm^2
Wound Area ([1]; DAY 13): 11.62 ± 4.49 mm^2
Wound Area ([1]; DAY 15): 6.94 ± 5.04 mm^2
Wound Area ([1]; DAY 17): 4.12 ± 3.96 mm^2
Wound Area ([1]; DAY 19): 0 mm^2
Wound Area ([1]; DAY 21): 0 mm^2
cell viability of HaCaT cells (HaCaT cells; 50 μg/ml, 24 and 48 h): significantly decreased
cell viability of HaCaT cells (HaCaT cells; low doses (1, 5, and 10 μg/ml), 24 h): significantly enhanced
cell viability of CCD-966SK cells (CCD-966SK cells): significantly decreased
cell viability of A375 cell (A375 cell): significantly inhibited

Source: US20160193139A1, “Composition having A. paniculata for wound healing and skin whitening, and method by using the same” (National Dong Hua University, priority 2013, published 2016)
